One may read the Ki as a measure of affinity in units of concentration, obtained from inhibition or displacement.

In patent EP3572411A1, “THIAZOLE DERIVATIVES AS METALLO-BETA-LACTAMASE INHIBITORS” (Antabio SAS, priority 2018, dated 2019) one finds Ki data, which are given here for 20 molecules.

Common to all, as to assay: In vitro enzyme inhibition assay (imipenem hydrolysis, UV 299 nm)
What all share (assay type): biochemical

One assay has as its target T1, IMP-1 (Serratia marcescens, UniProt P52699).
T1 construct: VIM-1; VIM-2
Here is the method: (§1) In vitro enzyme inhibition assays: Enzyme inhibition assays are performed using purified MBL enzymes (NDM-1; VIM-1; VIM-2; IMP-1) in 10mM HEPES buffer pH 7.5 in 96-well microtiter plates. Imipenem (300µM) is used as substrates and its hydrolysis is followed at UV 299 nm during 10mn every 30 seconds using a Perkin Elmer Envision UV fluorescence plate reader. Hydrolysis rate data in presence of a range of inhibitors are analysed using Dotmatics database software and calculated IC50 values are converted to Ki values using the Cheng-Prusoff equation. Ki = IC50 / (1+([S]/Km) and where the Km values for […] are 70 µM, 1.5 µM, 9 µM and 25 µM respectively. Compound dilution is performed in DMSO. Mean Ki values from multiple experiments are presented. Results are shown in Table 1.

The target of the next assay is T2, NDM-1 (Klebsiella pneumoniae, UniProt C7C422).
T2 construct: VIM-1; VIM-2
As for the experimental part: as §1

The target of another assay is T3, VIM-1 (Pseudomonas aeruginosa, UniProt A0A0F7KYQ8).
T3 construct: VIM-1; VIM-2; IMP-1)
Here is the method:
as §1

The next assay addresses T4, VIM-2 (Escherichia coli, UniProt Q5U7L7).
T4 construct: VIM-1; VIM-2
The settings on record: read-out: Ki (µM) VIM-2; purified enzyme, 10mM HEPES pH 7.5, Imipenem 300µM; mean Ki from IC50 by Cheng-Prusoff. Here is the method:
as §1

[1] abbreviates: read-out: Ki (µM) IMP-1; purified enzyme, 10mM HEPES pH 7.5, Imipenem 300µM; mean Ki from IC50 by Cheng-Prusoff.
Where [2] appears, read: read-out: Ki (µM) NDM-1; purified enzyme, 10mM HEPES pH 7.5, Imipenem 300µM; mean Ki from IC50 by Cheng-Prusoff.
[3] abbreviates: read-out: Ki (µM) VIM-1; purified enzyme, 10mM HEPES pH 7.5, Imipenem 300µM; mean Ki from IC50 by Cheng-Prusoff.

Like-named read-outs stand apart in the source and are kept apart here. A value given as a limit tells only on which side of the number the result lay.

T2 sequence (C7C422 29-270, looked up): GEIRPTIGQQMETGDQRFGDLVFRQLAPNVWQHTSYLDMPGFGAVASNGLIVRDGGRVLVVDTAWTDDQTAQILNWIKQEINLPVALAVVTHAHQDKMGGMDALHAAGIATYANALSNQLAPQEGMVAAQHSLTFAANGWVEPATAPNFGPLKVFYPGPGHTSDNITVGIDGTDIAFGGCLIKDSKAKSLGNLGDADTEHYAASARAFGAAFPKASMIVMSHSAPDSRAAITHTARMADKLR
T1 sequence (P52699 19-246, looked up, species assumed): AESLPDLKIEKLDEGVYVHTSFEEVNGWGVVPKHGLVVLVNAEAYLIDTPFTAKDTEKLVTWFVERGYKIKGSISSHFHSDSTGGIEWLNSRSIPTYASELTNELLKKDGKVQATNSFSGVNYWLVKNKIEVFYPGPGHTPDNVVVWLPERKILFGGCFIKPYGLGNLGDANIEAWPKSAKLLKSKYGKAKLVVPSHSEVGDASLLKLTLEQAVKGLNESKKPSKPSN

With `C[n+]1ccn(CC(=O)Nc2ccc(S(=O)(=O)Nc3scnc3C(=O)[O-])cc2F)n1` [Example 9, 1-[({4-[(4-carboxy-1,3-thiazol-5-yl)sulfamoyl]-2-fluorophenyl}carbamoyl)methyl]-3-methyl-1H-1,2,3-triazol-3-ium], the Ki on IMP-1 (setting [1]) is 1 to 8 µM; at NDM-1 (setting [2]), less than 0.05 µM; on VIM-1 (setting [3]), 0.2 to 0.5 µM; at VIM-2 it was 0.05 to 0.2 µM.

Regarding `C[n+]1cn(CC(=O)Nc2ccc(S(=O)(=O)Nc3scnc3C(=O)[O-])cc2F)cn1` [Example 22, 4-[({4-[(4-carboxy-1,3-thiazol-5-yl)sulfamoyl]-2-fluorophenyl}carbamoyl)methyl]-1-methyl-1,2,4-triazol-1-ium], the inhibitory constant (Ki) was 0.5 to 1 µM at IMP-1 (setting [1]), 0.05 to 0.2 µM on NDM-1 (setting [2]), 0.2 to 0.5 µM on VIM-1 (setting [3]) and 0.05 to 0.2 µM at VIM-2.

Regarding `Cc1cn(CC(=O)Nc2ccc(S(=O)(=O)Nc3scnc3C(=O)[O-])cc2F)c[n+]1C` [Example 7, 1-[({4-[(4-carboxy-1,3-thiazol-5-yl)sulfamoyl]-2-fluorophenyl}carbamoyl)methyl]-3,4-dimethyl-1H-imidazol-3-ium], the Ki at IMP-1 (setting [1]) is 1 to 8 µM; at NDM-1 (setting [2]), 0.2 to 0.4 µM; at VIM-1 (setting [3]) it was less than 0.2 µM; on VIM-2, 0.02 to 0.05 µM.

For the molecule `C[n+]1ccn(CC(=O)Nc2ccc(S(=O)(=O)Nc3scnc3C(=O)[O-])cc2F)c1N` [Example 3, 2-amino-1-[({4-[(4-carboxy-1,3-thiazol-5-yl)sulfamoyl]-2-fluorophenyl}carbamoyl)methyl]-3-methyl-1H-imidazol-3-ium], the Ki on IMP-1 (setting [1]) was 1 to 8 µM; at NDM-1 (setting [2]) it was 0.05 to 0.2 µM; on VIM-1 (setting [3]), 0.2 to 0.5 µM; on VIM-2, 0.05 to 0.2 µM.

As to `C[n+]1cccn1CC(=O)Nc1ccc(S(=O)(=O)Nc2scnc2C(=O)[O-])cc1F` [Example 10, 1-[({4-[(4-carboxy-1,3-thiazol-5-yl)sulfamoyl]-2-fluorophenyl}carbamoyl)methyl]-2-methyl-1H-pyrazol-2-ium], the figures for the Ki on IMP-1 (setting [1]), at NDM-1 (setting [2]) and at VIM-1 (setting [3]) were 1 to 8 µM, 0.05 to 0.2 µM and 0.2 to 0.5 µM, respectively.

Consider `C[n+]1c(N)ccn1CC(=O)Nc1ccc(S(=O)(=O)Nc2scnc2C(=O)[O-])cc1F` [Example 8, 3-amino-1-[({4-[(4-carboxy-1,3-thiazol-5-yl)sulfamoyl]-2-fluorophenyl}carbamoyl)methyl]-2-methyl-1H-pyrazol-2-ium], for which the values for the inhibitory constant (Ki) at IMP-1 (setting [1]), on NDM-1 (setting [2]) and at VIM-1 (setting [3]) were 1 to 8 µM, 0.05 to 0.2 µM and 0.2 to 0.5 µM, respectively.

Turning to `C[n+]1nnn(CC(=O)Nc2ccc(S(=O)(=O)Nc3scnc3C(=O)[O-])cc2F)c1N` [Example 26, 5-amino-1-[({4-[(4-carboxy-1,3-thiazol-5-yl)sulfamoyl]-2-fluorophenyl}carbamoyl)methyl]-4-methyl-1H-1,2,3,4-tetrazol-4-ium], the Ki at IMP-1 (setting [1]) is 0.5 to 1 µM; on NDM-1 (setting [2]) it was less than 0.05 µM; on VIM-1 (setting [3]) it was 0.2 to 0.5 µM; at VIM-2, 0.05 to 0.2 µM.

For `N#Cc1cc(S(=O)(=O)Nc2scnc2C(=O)[O-])ccc1NC(=O)Cn1cc[n+](CCN)c1` [Example 18, 3-(2-aminoethyl)-1-[({4-[(4-carboxy-1,3-thiazol-5-yl)sulfamoyl]-2-cyanophenyl}carbamoyl)methyl]-1H-imidazol-3-ium], the Ki at IMP-1 (setting [1]) is 0.5 to 1 µM; at NDM-1 (setting [2]) it was 0.05 to 0.2 µM; on VIM-1 (setting [3]), less than 0.2 µM; on VIM-2, less than 0.02 µM.

In the case of `N#Cc1cc(S(=O)(=O)Nc2scnc2C(=O)[O-])ccc1NC(=O)Cn1cc[n+](CCNC(=N)N)c1` [Example 19, 3-(2-carbamimidamidoethyl)-1-[({4-[(4-carboxy-1,3-thiazol-5-yl)sulfamoyl]-2-cyanophenyl}carbamoyl)methyl]-1H-imidazol-3-ium], the Ki at IMP-1 (setting [1]) is 1 to 8 µM; on NDM-1 (setting [2]) it was 0.2 to 0.4 µM; at VIM-1 (setting [3]), less than 0.2 µM; at VIM-2, 0.02 to 0.05 µM.

As for `N=C(N)NCC[n+]1ccn(CC(=O)Nc2ccc(S(=O)(=O)Nc3scnc3C(=O)[O-])cc2F)c1` [Example 12, 3-(2-carbamimidamidoethyl)-1-[({4-[(4-carboxy-1,3-thiazol-5-yl)sulfamoyl]-2-fluorophenyl}carbamoyl)methyl]-1H-imidazol-3-ium], the Ki on IMP-1 (setting [1]) was 1 to 8 µM; on NDM-1 (setting [2]), less than 0.05 µM; on VIM-1 (setting [3]), less than 0.2 µM; at VIM-2, 0.05 to 0.2 µM.

As to `O=C(Cn1cc[n+]2c1COCC2)Nc1ccc(S(=O)(=O)Nc2scnc2C(=O)[O-])cc1F` [Example 5, 1-[({4-[(4-carboxy-1,3-thiazol-5-yl)sulfamoyl]-2-fluorophenyl}carbamoyl)methyl]-1H,5H,6H,8H-4lambda5-imidazo[2,1-c][1,4]oxazin-4-ylium], the Ki on IMP-1 (setting [1]) is 1 to 8 µM; on NDM-1 (setting [2]) it was 0.05 to 0.2 µM; at VIM-1 (setting [3]) it was 0.5 to 0.8 µM; on VIM-2 it was 0.05 to 0.2 µM.

For `CSc1n(CC(=O)Nc2ccc(S(=O)(=O)Nc3scnc3C(=O)[O-])cc2F)cc[n+]1C` [Example 4], the inhibition constant (Ki) at IMP-1 (purified enzyme, 10mM HEPES pH 7.5, Imipenem 300µM; mean Ki from IC50 by Cheng-Prusoff; read-out: Ki (µM) IMP-1) was 1 to 8 µM; at NDM-1 (purified enzyme, 10mM HEPES pH 7.5, Imipenem 300µM; mean Ki from IC50 by Cheng-Prusoff; read-out: Ki (µM) NDM-1), 0.05 to 0.2 µM; at VIM-1 (purified enzyme, 10mM HEPES pH 7.5, Imipenem 300µM; mean Ki from IC50 by Cheng-Prusoff; read-out: Ki (µM) VIM-1) it was 0.2 to 0.5 µM.

On to `C[n+]1ccn(CC(=O)Nc2ccc(S(=O)(=O)Nc3scnc3C(=O)[O-])cc2F)c1` [Example 1, 1-[({4-[(4-carboxy-1,3-thiazol-5-yl)sulfamoyl]-2-fluorophenyl}carbamoyl)methyl]-3-methyl-1H-imidazol-3-ium], for which the Ki at IMP-1 (setting [1]) is 1 to 8 µM; on NDM-1 (setting [2]) it was less than 0.05 µM; at VIM-1 (setting [3]) it was 0.2 to 0.5 µM; on VIM-2 it was 0.05 to 0.2 µM.

For the molecule `NCCC[n+]1ccn(CC(=O)Nc2ccc(S(=O)(=O)Nc3scnc3C(=O)[O-])cc2F)c1` [Example 16, 3-(3-aminopropyl)-1-[({4-[(4-carboxy-1,3-thiazol-5-yl)sulfamoyl]-2-fluorophenyl}carbamoyl)methyl]-1H-imidazol-3-ium], the Ki is 1 to 8 µM on IMP-1 (setting [1]), less than 0.05 µM on NDM-1 (setting [2]), less than 0.2 µM at VIM-1 (setting [3]) and less than 0.02 µM on VIM-2.

`C[n+]1ccn(CC(=O)Nc2c(F)cc(S(=O)(=O)Nc3scnc3C(=O)[O-])cc2F)c1` [Example 13, 1-[({4-[(4-carboxy-1,3-thiazol-5-yl)sulfamoyl]-2,6-difluorophenyl}carbamoyl)methyl]-3-methyl-1H-imidazol-3-ium]: the Ki on IMP-1 (setting [1]) was in the range of 1 to 8 µM; on NDM-1 (setting [2]), 0.05 to 0.2 µM; at VIM-1 (setting [3]) it was 0.5 to 0.8 µM; on VIM-2, 0.05 to 0.2 µM.

Regarding `NCC[n+]1ccn(CC(=O)Nc2ccc(S(=O)(=O)Nc3scnc3C(=O)[O-])cc2F)c1` [Example 11, 3-(2-aminoethyl)-1-[({4-[(4-carboxy-1,3-thiazol-5-yl)sulfamoyl]-2-fluorophenyl}carbamoyl)methyl]-1H-imidazol-3-ium], the inhibition constant (Ki) on IMP-1 (setting [1]) is 1 to 8 µM; at NDM-1 (setting [2]) it was less than 0.05 µM; on VIM-1 (setting [3]), less than 0.2 µM; at VIM-2, 0.02 to 0.05 µM.

With `N=C(N)NCC[n+]1ccn(CC(=O)Nc2c(F)cc(S(=O)(=O)Nc3scnc3C(=O)[O-])cc2F)c1` [Example 15, 1-(2-carbamimidamidoethyl)-3-[({4-[(4-carboxy-1,3-thiazol-5-yl)sulfamoyl]-2,6-difluorophenyl}carbamoyl)methyl]imidazol-1-ium], the Ki at IMP-1 (setting [1]) was 1 to 8 µM; on NDM-1 (setting [2]), less than 0.05 µM; on VIM-1 (setting [3]) it was less than 0.2 µM; at VIM-2, 0.02 to 0.05 µM.

For `CN(C)CC[n+]1ccn(CC(=O)Nc2ccc(S(=O)(=O)Nc3scnc3C(=O)[O-])cc2F)c1` [Example 20, 3-[({4-[(4-carboxy-1,3-thiazol-5-yl)sulfamoyl]-2-fluorophenyl}carbamoyl)methyl]-1-[2-(dimethylamino)ethyl]imidazol-1-ium], the Ki at IMP-1 (setting [1]) is 1 to 8 µM; at NDM-1 (setting [2]), less than 0.05 µM; at VIM-1 (setting [3]), less than 0.2 µM; at VIM-2, 0.05 to 0.2 µM.

As to `Cc1n(CC(=O)Nc2ccc(S(=O)(=O)Nc3scnc3C(=O)[O-])cc2F)cc[n+]1C` [Example 2, 1-[({4-[(4-carboxy-1,3-thiazol-5-yl)sulfamoyl]-2-fluorophenyl}carbamoyl)methyl]-2,3-dimethyl-1H-imidazol-3-ium], the Ki on IMP-1 (setting [1]) was in the range of 1 to 8 µM; on NDM-1 (setting [2]), 0.05 to 0.2 µM; at VIM-1 (setting [3]), 0.2 to 0.5 µM; on VIM-2, 0.05 to 0.2 µM.

`C[n+]1ccn(CC(=O)Nc2c(F)cc(S(=O)(=O)Nc3scnc3C(=O)[O-])cc2F)n1` [Example 23, 1-[({4-[(4-carboxy-1,3-thiazol-5-yl)sulfamoyl]-2,6-difluorophenyl}carbamoyl)methyl]-3-methyl-1H-1,2,3-triazol-3-ium]: the Ki on IMP-1 (setting [1]) fell in the range of 1 to 8 µM; at NDM-1 (setting [2]), 0.05 to 0.2 µM; at VIM-1 (setting [3]), 0.2 to 0.5 µM; on VIM-2 it was 0.05 to 0.2 µM.
